Molecular target: T1, hGLP-1 receptor (Homo sapiens, UniProt P43220)
T1 construct: expressed in transfected cells; host or cells: CHO-K1 (stably transfected with hGLP-1 receptor plasmid and CRE-luc plasmid)
Test: Agonist activity against GLP-1 receptor (CRE-luciferase reporter, ONE-Glo Luciferase Assay System)
Type: cell-based
Conditions: CHO-K1/CRE-luc/hGLP-1 receptor cells; 5 h incubation with compound; chemiluminescence readout
Excerpt: This experiment was intended to test the agonist activity of compound molecules against hGLP-1 receptor and evaluate the in vitro activity of the molecules according to EC50. In this experiment, ONE-Glo™ Luciferase Assay System (ONE-Glo™ Luciferase Assay System, Promega, E6110) was used. Under the action of the compound molecules, GLP-1R downstream signaling pathways were activated to cause elevated cAMP level. The binding of cAMP to CRE could initiate the transcriptional expression of a CRE downstream luciferase gene. The luciferase could emit fluorescence when reacting with a substrate thereof. The fluorescence signal, which reflected the activity of the compound for agonizing GLP-1 receptor, was measured by means ONE-Glo™ reagent.
A stably transfected CHO-K1/CRE-luc/hGLP-1 receptor cell strain (hGLP-1 receptor plasmid constructed in-house and CRE-luc plasmid Promega E8471) was constructed. CHO-K1/CRE-luc/hGLP-1 receptor cells were digested, centrifuged, and then resuspended. The single cell suspension was uniformly mixed and adjusted to a viable cell density of 2.78 × 10^5 cells/ml with a cell culture medium (DME/F-12 + 10% FBS). The resulting solution was added to a 96-well cell culture plate at 90 µL/well (Corning, #3903). The culture plate was incubated in an incubator for 16 h (37°C, 5% CO2).
The compound was dissolved in DMSO to prepare a stock solution with an initial concentration of 20 mM. The starting concentration of the small molecule compound was 0.02 mM. The compound was subjected to 3-fold dilution for 10 points, wherein the 11th point was DMSO. Another 96-well plate was taken, to which was added 95 µL/well of a cell culture medium (DME/F-12 + 10% FBS), followed by 5 µL/well of test samples with different concentrations. The mixtures were uniformly mixed. Next, 10 µL/well of test samples with different concentrations were added to the cell culture plate, with two duplicate wells for each sample. The culture plate was incubated in an incubator for 5 h (37°C, 5% CO2). The 96-well cell culture plate was taken out. 100 µL/well of ONE-Glo™ reagent was added, followed by incubation at room temperature for 10 minutes. Chemiluminescence was measured in and by a microplate reader (PHERAstar FS, BMG labtech).
Data were processed and analyzed using Microsoft Excel and Graphpad Prism 10. EC50 values of the compounds were obtained. Table 1. Agonist activity of the compounds of the present invention against hGLP-1 receptor

T1 sequence (P43220 24-463): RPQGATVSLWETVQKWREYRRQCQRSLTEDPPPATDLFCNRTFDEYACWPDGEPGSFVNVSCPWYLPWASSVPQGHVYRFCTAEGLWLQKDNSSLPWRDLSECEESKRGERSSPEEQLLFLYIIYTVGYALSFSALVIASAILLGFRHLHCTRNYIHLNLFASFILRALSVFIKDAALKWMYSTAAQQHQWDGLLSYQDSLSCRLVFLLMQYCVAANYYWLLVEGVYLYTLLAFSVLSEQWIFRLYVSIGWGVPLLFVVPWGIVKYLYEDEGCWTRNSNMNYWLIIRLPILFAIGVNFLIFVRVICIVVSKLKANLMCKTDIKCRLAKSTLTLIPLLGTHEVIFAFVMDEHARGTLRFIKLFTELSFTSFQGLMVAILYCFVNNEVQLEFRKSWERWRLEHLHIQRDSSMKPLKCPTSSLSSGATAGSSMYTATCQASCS

Row | SMILES | EC50 [nM] | Emax [fold]
1 | Cc1cc(-n2nc3c(c2-c2cccn(-c4ccc5c(cnn5C)c4)c2=O)[C@H](C)N(C(=O)c2cc4cc([C@H]5CCOC(C)(C)C5)ccc4n2[C@@]2(c4noc(=O)[nH]4)C[C@@H]2C)CC3)cc(C)c1F [Compound 3, 3-((1S,2S)-1-(5-((S)-2,2-dimethyltetrahydro-2H-pyran-4-yl)-2-((S)-2-(4-fluoro-3,5-dimethylphenyl)-4-methyl-3-(1-(1-methyl-1H-indazol-5-yl)-2-oxo-1,2-dihydropyridin-3-yl)-4,5,6,7-tetrahydro-2H-pyrazolo[4,3-c]pyridine-5-carbonyl)-1H-indol-1-yl)-2-methylcyclopropyl)-1,2,4-oxadiazol-5(4H)-one] | 0.09 | 19.88
2 | Cc1cc(-n2nc3c(c2N2C[C@@H]4COc5c(ccc6c5cnn6C)N4C2=O)[C@H](C)N(C(=O)c2cc4cc([C@H]5CCOC(C)(C)C5)ccc4n2[C@@]2(c4noc(=O)[nH]4)C[C@@H]2C)CC3)cc(C)c1F [Compound 23, (R)-7-((S)-5-(5-((S)-2,2-dimethyltetrahydro-2H-pyran-4-yl)-1-((1S,2S)-2-methyl-1-(5-oxo-4,5-dihydro-1,2,4-oxadiazol-3-yl)cyclopropyl)-1H-indole-2-carbonyl)-2-(4-fluoro-3,5-dimethylphenyl)-4-methyl-4,5,6,7-tetrahydro-2H-pyrazolo[4,3-c]pyridin-3-yl)-1-methyl-5,5a,6,7-tetrahydro-1H,8H-imidazo[1',5':4,5][1,4]oxazino[2,3-e]indazol-8-one] | 0.02 | 22.76
3 | C[C@H]1c2c(nn(-c3ccc(F)c(C4CC4)c3)c2N2C[C@@H]3COc4cc5c(cnn5C5CC5)c(F)c4N3C2=O)CCN1C(=O)c1cc2cc([C@H]3CCOC(C)(C)C3)ccc2n1[C@@]1(c2noc(=O)[nH]2)C[C@@H]1C [Compound 46, (R)-7-cyclopropyl-2-((S)-2-(3-cyclopropyl-4-fluorophenyl)-5-(5-((S)-2,2-dimethyltetrahydro-2H-pyran-4-yl)-1-((1S,2S)-2-methyl-1-(5-oxo-4,5-dihydro-1,2,4-oxadiazol-3-yl)cyclopropyl)-1H-indole-2-carbonyl)-4-methyl-4,5,6,7-tetrahydro-2H-pyrazolo[4,3-c]pyridin-3-yl)-10-fluoro-2,3,3a,4-tetrahydro-1H,7H-imidazo[1',5':4,5][1,4]oxazino[3,2-f]indazol-1-one] | 0.05 | 16.76
4 | Cc1cc(-n2nc3c(c2N2C[C@@H]4COc5c(c(F)cc6c5cnn6C5CC5)N4C2=O)[C@H](C)N(C(=O)c2cc4cc([C@H]5CCOC(C)(C)C5)ccc4n2[C@@]2(c4noc(=O)[nH]4)C[C@@H]2C)CC3)cc(C)c1F [Compound 37, (R)-1-cyclopropyl-7-((S)-5-(5-((S)-2,2-dimethyltetrahydro-2H-pyran-4-yl)-1-((1S,2S)-2-methyl-1-(5-oxo-4,5-dihydro-1,2,4-oxadiazol-3-yl)cyclopropyl)-1H-indole-2-carbonyl)-2-(4-fluoro-3,5-dimethylphenyl)-4-methyl-4,5,6,7-tetrahydro-2H-pyrazolo[4,3-c]pyridin-3-yl)-10-fluoro-5,5a,6,7-tetrahydro-1H,8H-imidazo[1',5':4,5][1,4]oxazino[2,3-e]indazol-8-one] | 0.03 | 18.06
5 | Cc1cc(-n2nc3c(c2N2C[C@@H]4COc5cc6c(cnn6C(F)F)c(F)c5N4C2=O)[C@H](C)N(C(=O)c2cc4cc([C@H]5CCOC(C)(C)C5)ccc4n2[C@@]2(c4noc(=O)[nH]4)C[C@@H]2C)CC3)cc(C)c1F [Compound 25, (R)-7-(difluoromethyl)-2-((S)-5-(5-((S)-2,2-dimethyltetrahydro-2H-pyran-4-yl)-1-((1S,2S)-2-methyl-1-(5-oxo-4,5-dihydro-1,2,4-oxadiazol-3-yl)cyclopropyl)-1H-indole-2-carbonyl)-2-(4-fluoro-3,5-dimethylphenyl)-4-methyl-4,5,6,7-tetrahydro-2H-pyrazolo[4,3-c]pyridin-3-yl)-10-fluoro-2,3,3a,4-tetrahydro-1H,7H-imidazo[1',5':4,5][1,4]oxazino[3,2-f]indazol-1-one] | 0.02 | 18.46
6 | COCCn1ncc2c(F)c3c(cc21)OC[C@H]1CN(c2c4c(nn2-c2cc(C)c(F)c(C)c2)CCN(C(=O)c2cc5cc([C@H]6CCOC(C)(C)C6)ccc5n2[C@@]2(c5noc(=O)[nH]5)C[C@@H]2C)[C@H]4C)C(=O)N31 [Compound 30, (R)-2-((S)-5-(5-((S)-2,2-dimethyltetrahydro-2H-pyran-4-yl)-1-((1S,2S)-2-methyl-1-(5-oxo-4,5-dihydro-1,2,4-oxadiazol-3-yl)cyclopropyl)-1H-indole-2-carbonyl)-2-(4-fluoro-3,5-dimethylphenyl)-4-methyl-4,5,6,7-tetrahydro-2H-pyrazolo[4,3-c]pyridin-3-yl)-10-fluoro-7-(2-methoxyethyl)-2,3,3a,4-tetrahydro-1H,7H-imidazo[1',5':4,5][1,4]oxazino[3,2-f]indazol-1-one] | 0.02 | 20.59
7 | Cc1cc(-n2nc3c(c2N2C[C@@H]4COc5c(ccc6c5cnn6C5CC5)N4C2=O)[C@H](C)N(C(=O)c2cc4cc([C@H]5CCOC(C)(C)C5)ccc4n2[C@@]2(c4noc(=O)[nH]4)C[C@@H]2C)CC3)cc(C)c1F [Compound 24, (R)-1-cyclopropyl-7-((S)-5-(5-((S)-2,2-dimethyltetrahydro-2H-pyran-4-yl)-1-((1S,2S)-2-methyl-1-(5-oxo-4,5-dihydro-1,2,4-oxadiazol-3-yl)cyclopropyl)-1H-indole-2-carbonyl)-2-(4-fluoro-3,5-dimethylphenyl)-4-methyl-4,5,6,7-tetrahydro-2H-pyrazolo[4,3-c]pyridin-3-yl)-5,5a,6,7-tetrahydro-1H,8H-imidazo[1',5':4,5][1,4]oxazino[2,3-e]indazol-8-one] | 0.03 | 18.51
8 | Cc1cc(-n2nc3c(c2N2C[C@@H]4COc5cc6c(cnn6C(C)(C)C)c(F)c5N4C2=O)[C@H](C)N(C(=O)c2cc4cc([C@H]5CCOC(C)(C)C5)ccc4n2[C@@]2(c4noc(=O)[nH]4)C[C@@H]2C)CC3)cc(C)c1F [Compound 50, (R)-7-(tert-butyl)-2-((S)-5-(5-((S)-2,2-dimethyltetrahydro-2H-pyran-4-yl)-1-((1S,2S)-2-methyl-1-(5-oxo-4,5-dihydro-1,2,4-oxadiazol-3-yl)cyclopropyl)-1H-indole-2-carbonyl)-2-(4-fluoro-3,5-dimethylphenyl)-4-methyl-4,5,6,7-tetrahydro-2H-pyrazolo[4,3-c]pyridin-3-yl)-10-fluoro-2,3,3a,4-tetrahydro-1H,7H-imidazo[1',5':4,5][1,4]oxazino[3,2-f]indazol-1-one] | 0.04 | 18.87
9 | C[C@H]1c2c(nn(-c3ccc(F)c(C4CC4)c3)c2-c2cncn(-c3ccc4c(cnn4C)c3)c2=O)CCN1C(=O)c1cc2cc([C@H]3CCOC(C)(C)C3)ccc2n1[C@@]1(c2noc(=O)[nH]2)C[C@@H]1C [Compound 42, 3-((1S,2S)-1-(2-((S)-2-(3-cyclopropyl-4-fluorophenyl)-4-methyl-3-(1-(1-methyl-1H-indazol-5-yl)-6-oxo-1,6-dihydropyrimidin-5-yl)-4,5,6,7-tetrahydro-2H-pyrazolo[4,3-c]pyridine-5-carbonyl)-5-((S)-2,2-dimethyltetrahydro-2H-pyran-4-yl)-1H-indol-1-yl)-2-methylcyclopropyl)-1,2,4-oxadiazol-5(4H)-one] | 0.05 | 19.67
